Patent US20230091047A1 (priority 2019, published 2023)
Like-named read-outs stand apart in the source and are kept apart here.

Tests used:
in vitro = assay type: cell-based; settings: human, HepG2 or HepG2.117 cells, ATPlite, mean value
Summary of the method: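 Luminescent ATP quantitation served as the viability endpoint following a 3- or 4-day incubation with test compounds.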

[1] = tested on: HBV (HepG2.117 cell line, inducibly HBV producing); assay: Anti-HBV activity: intracellular HBV DNA by real-time PCR in HepG2.117 cells after 3 days of treatment; assay type: cell-based, hepatitis B virus
Summary of the method: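 HepG2.117 cells replicate HBV under Tet-off control, without doxycycline. After induction of replication, cells were treated with serially diluted compound for 3 days, and intracellular HBV DNA was then quantified by real-time PCR with an HBV-specific primer set and probe.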

[2] = 3-days incubation (unmarked values)
[3] = Hepatitis B virus, HepG2.117, 72 h, HepG2.117 cells, 3 days of treatment, intracellular HBV DNA by real-time PCR; mean value; read-out: EC50 (μM, mean value)
[4] = 3-days incubation (not marked with *)
[5] = Hepatitis B virus, HepG2.117, 72 h, HepG2.117 cells, intracellular HBV DNA by real-time PCR, 3 days of treatment, mean value; read-out: EC50 (μM, mean value)

COc1ccc(CNc2nc3c(c(=O)n2-c2ccccc2OC)CC(C)N(C(=O)c2ccc(Cl)c(Cl)c2)C3)cc1 (stereo not drawn) [Compound C36, 7-(3,4-dichlorobenzoyl)-3-(2-methoxyphenyl)-2-{[(4-methoxyphenyl)methyl]amino}-6-methyl-5,6,7,8-tetrahydropyrido[3,4-d]pyrimidin-4(3H)-one]
CC50 at 3 days (in vitro; [2]): > 50 µM | EC50 [1, 3]: 1.26 µM

CNC(=O)c1ccc(-n2c(N3CCC[C@H]3C)nc3c(c2=O)C[C@@H](C)N(C(=O)c2ccc(Cl)c(Cl)c2)C3)cc1 [Compound C252, 4-[(6R)-7-(3,4-dichlorobenzoyl)-6-methyl-2-[(2R)-2-methylpyrrolidin-1-yl]-4-oxo-5,6,7,8-tetrahydropyrido[3,4-d]pyrimidin-3(4H)-yl]-N-methylbenzamide]
CC50 at 3 days (in vitro; [2]): 25.9 µM | EC50 [1, 3]: 0.04 µM

CNC(=O)c1ccc(-n2c(N[C@H](CC3CC3)c3ccccc3)nc3c(c2=O)C[C@@H](C)N(C(=O)c2ccc(Cl)c(Cl)c2)C3)cc1 (single isomer, unassigned) [Compound C437a]
CC50 at 3 days (in vitro; [4]): 24.6 µM | EC50 [1, 5]: 0.16 µM

COC(=O)C12CC(n3c(NC(C)C)nc4c(c3=O)C[C@@H](C)N(C(=O)c3ccc(Cl)c(Cl)c3)C4)(C1)C2 [Compound C236]
CC50 at 3 days (in vitro; [2]): > 50 µM | EC50 [1, 3]: > 50 µM

CNC(=O)c1ccc(-n2c(NC(C)C)nc3c(c2=O)C[C@@H](C)N(C(=O)c2ccc(Cl)c(Cl)c2)C3)c(OC)c1 (single isomer, unassigned) [Compound C314a]
CC50 at 3 days (in vitro; [2]): > 50 µM | EC50 ([1]; HepG2.117 cells, 3 days of treatment, intracellular HBV DNA by real-time PCR; mean value; read-out: EC50 (μM, mean value)): 0.1 µM

CNC(=O)c1ccc(-n2c(N[C@H]3CCOc4ccccc43)nc3c(c2=O)C[C@@H](C)N(C(=O)c2ccc(Cl)c(Cl)c2)C3)cc1 (single isomer, unassigned) [Compound C526b]
CC50 at 3 days (in vitro; [4]): 16.3 µM | EC50 [1, 5]: 5.42 µM

COc1ccccc1-n1c(N)nc2c(c1=O)CC(C)N(C(=O)c1ccc(Cl)c(Cl)c1)C2 (stereo not drawn) [Compound C95, 2-amino-7-(3,4-dichlorobenzoyl)-3-(2-methoxyphenyl)-6-methyl-5,6,7,8-tetrahydropyrido[3,4-d]pyrimidin-4(3H)-one]
CC50 at 3 days (in vitro; [2]): > 50 µM | EC50 [1, 3]: 1.02 µM

CC(C)Nc1nc2c(c(=O)n1-c1ccc(S(C)(=O)=O)cc1)CCN(C(=O)c1[nH]c3ccccc3c1Cl)C2 [Compound C133, 7-(3-chloro-1H-indole-2-carbonyl)-3-[4-(methanesulfonyl)phenyl]-2-[(propan-2-yl)amino]-5,6,7,8-tetrahydropyrido[3,4-d]pyrimidin-4(3H)-one]
CC50 at 3 days (in vitro; [2]): 28.3 µM | EC50 [1, 3]: 1.94 µM

CNC(=O)c1ccc(-n2c(NC(C)C)nc3c(c2=O)C[C@@H](C)N(C(=O)c2cc4c(F)cccc4[nH]2)C3)cc1 [Compound C505]
CC50 at 3 days (in vitro; [4]): 25.6 µM | EC50 [1, 5]: 0.02 µM

CNC(=O)c1ccc(-n2c(N3CC[C@@H]3c3ccccc3)nc3c(c2=O)C[C@@H](C)N(C(=O)c2ccc(Cl)c(Cl)c2)C3)cc1 (single isomer, unassigned) [Compound C348, 4-[(6R)-7-(3,4-dichlorobenzoyl)-6-methyl-4-oxo-2-[(2*R)-2-phenylazetidin-1-yl]-5,6,7,8-tetrahydropyrido[3,4-d]pyrimidin-3(4H)-yl]-N-methylbenzamide]
CC50 at 3 days (in vitro; [2]): 31.2 µM | EC50 [1, 3]: 0.2 µM

CNC(=O)c1ccc(-n2c(NC(C)C)nc3c(c2=O)C[C@@H](C)N(C(=O)c2ccc(C)cc2)C3)cc1 [Compound C507]
CC50 at 3 days (in vitro; [4]): > 50 µM | EC50 [1, 5]: 2.89 µM

CC(C)Nc1nc2c(c(=O)n1-c1ccc(S(C)(=O)=O)cc1)CC(c1ccc(F)cc1)N(C(=O)c1ccc(Cl)c(Cl)c1)C2 (stereo not drawn) [Compound C110, 7-(3,4-dichlorobenzoyl)-6-(4-fluorophenyl)-3-[4-(methanesulfonyl)phenyl]-2-[(propan-2-yl)amino]-5,6,7,8-tetrahydropyrido[3,4-d]pyrimidin-4(3H)-one]
CC50 at 3 days (in vitro; [2]): > 50 µM | EC50 [1, 3]: > 50 µM

CNC(=O)c1ccc(-n2c(NC(C)C)nc3c(c2=O)C[C@@H](C)N(C(=O)c2ccc(Cl)c(OC(F)(F)F)c2)C3)cc1 [Compound C635]
CC50 at 3 days (in vitro; [4]): > 50 µM | EC50 [1, 5]: 0.07 µM

Cc1nc(-c2ccc(-n3c(NC(C)C)nc4c(c3=O)C[C@@H](C)N(C(=O)c3ccc(Cl)c(Cl)c3)C4)c(Cl)c2)c[nH]1 [Compound C324, (6R)-3-[2-chloro-4-(2-methyl-1H-imidazol-4-yl)phenyl]-7-(3,4-dichlorobenzoyl)-6-methyl-2-[(propan-2-yl)amino]-5,6,7,8-tetrahydropyrido[3,4-d]pyrimidin-4(3H)-one]
CC50 at 3 days (in vitro; [2]): > 50 µM | EC50 [1, 3]: 0.41 µM

CNC(=O)c1ccc(-n2c(NC(C)c3ccc(C(F)(F)F)s3)nc3c(c2=O)C[C@@H](C)N(C(=O)c2ccc(Cl)c(Cl)c2)C3)cc1 (stereo partly drawn) [Compound C596]
CC50 at 3 days (in vitro; [4]): 25.5 µM | EC50 [1, 5]: 0.4 µM

CNC(=O)c1ccc(-n2c(NC[C@H](C)c3cccc(OC)c3)nc3c(c2=O)C[C@@H](C)N(C(=O)c2ccc(Cl)c(Cl)c2)C3)cc1 (single isomer, unassigned) [Compound C436a]
CC50 at 3 days (in vitro; [4]): 22.3 µM | EC50 [1, 5]: 0.99 µM

CNC(=O)OCC[C@@H](Nc1nc2c(c(=O)n1-c1ccc(C(=O)NC)cc1)C[C@@H](C)N(C(=O)c1ccc(Cl)c(Cl)c1)C2)C1CC1 (single isomer, unassigned) [Compound C256, (3*R)-3-cyclopropyl-3-({(6R)-7-(3,4-dichlorobenzoyl)-6-methyl-3-[4-(methylcarbamoyl)phenyl]-4-oxo-3,4,5,6,7,8-hexahydropyrido[3,4-d]pyrimidin-2-yl}amino)propyl methylcarbamate]
CC50 at 3 days (in vitro; [2]): > 50 µM | EC50 [1, 3]: 3.26 µM

CNC(=O)c1ccc(-n2c(N[C@@H](C)c3ccc4c(c3)OCO4)nc3c(c2=O)C[C@@H](C)N(C(=O)c2ccc(Cl)c(Cl)c2)C3)cc1 (single isomer, unassigned) [Compound C414b]
CC50 at 3 days (in vitro; [4]): > 50 µM | EC50 [1, 5]: 0.06 µM

CNC(=O)c1ccc(-n2c(NC(C)C)nc3c(c2=O)C[C@@H](C)N(C(=O)c2ccc(Cl)c(Cl)c2)C3)nn1 [Compound C281, 6-[(6R)-7-(3,4-dichlorobenzoyl)-6-methyl-4-oxo-2-[(propan-2-yl)amino]-5,6,7,8-tetrahydropyrido[3,4-d]pyrimidin-3(4H)-yl]-N-methylpyridazine-3-carboxamide]
CC50 at 3 days (in vitro; [2]): > 50 µM | EC50 [1, 3]: 0.16 µM

CC(C)Nc1nc2c(c(=O)n1-c1ccc(C(=O)NCCN3CCN(C)CC3)cc1)C[C@@H](C)N(C(=O)c1ccc(Cl)c(Cl)c1)C2 [Compound C208, 4-[(6R)-7-(3,4-dichlorobenzoyl)-6-methyl-4-oxo-2-[(propan-2-yl)amino]-5,6,7,8-tetrahydropyrido[3,4-d]pyrimidin-3(4H)-yl]-N-[2-(4-methylpiperazin-1-yl)ethyl]benzamide]
CC50 at 3 days (in vitro; [2]): 26.3 µM | EC50 [1, 3]: 0.62 µM

CC(C)Nc1nc2c(c(=O)n1-c1ccc(S(C)(=O)=O)cc1)CCN(C(=O)c1cc3ccccc3s1)C2 [Compound C182, 7-(1-benzothiophene-2-carbonyl)-3-[4-(methanesulfonyl)phenyl]-2-[(propan-2-yl)amino]-5,6,7,8-tetrahydropyrido[3,4-d]pyrimidin-4(3H)-one]
CC50 at 3 days (in vitro; [2]): > 50 µM | EC50 [1, 3]: 3.14 µM

COc1ccc(CNc2nc3c(c(=O)n2C2CCOCC2)CCN(C(=O)c2ccc(Cl)c(Cl)c2)C3)cc1 [Compound C93, 7-(3,4-dichlorobenzoyl)-2-{[(4-methoxyphenyl)methyl]amino}-3-(oxan-4-yl)-5,6,7,8-tetrahydropyrido[3,4-d]pyrimidin-4(3H)-one]
CC50 at 3 days (in vitro; [2]): 32 µM | EC50 [1, 3]: 1.73 µM

CNC(=O)c1ccc(-n2c(NC(C)C)nc3c(c2=O)C[C@@H](C)N(C(=O)c2ccc(Cl)c(Cl)c2)C3)cn1 [Compound C265]
CC50 at 3 days (in vitro; [2]): > 50 µM | EC50 [1, 3]: 0.18 µM

Cc1nnc(-c2ccc(-n3c(NC(C)C)nc4c(c3=O)C[C@@H](C)N(C(=O)c3ccc(Cl)c(Cl)c3)C4)cc2)o1 [Compound C242, (6R)-7-(3,4-dichlorobenzoyl)-6-methyl-3-[4-(5-methyl-1,3,4-oxadiazol-2-yl)phenyl]-2-[(propan-2-yl)amino]-5,6,7,8-tetrahydropyrido[3,4-d]pyrimidin-4(3H)-one]
CC50 at 3 days (in vitro; [2]): > 50 µM | EC50 [1, 3]: 0.28 µM

CNC(=O)c1ccc(-n2c(N(C)Cc3ccc4cnccc4c3)nc3c(c2=O)C[C@@H](C)N(C(=O)c2ccc(Cl)c(Cl)c2)C3)cc1 [Compound C544]
CC50 at 3 days (in vitro; [4]): 26.7 µM | EC50 [1, 5]: 0.6 µM

COc1ccc(CNc2nc3c(c(=O)[nH]2)CCN(C(=O)c2ccc(Cl)c(F)c2)C3)cc1 [Compound C106, 7-(4-chloro-3-fluorobenzoyl)-2-{[(4-methoxyphenyl)methyl]amino}-5,6,7,8-tetrahydropyrido[3,4-d]pyrimidin-4(3H)-one]
CC50 at 3 days (in vitro; [2]): 27.1 µM | EC50 [1, 3]: 21.1 µM

CC(C)Nc1nc2c(c(=O)[nH]1)C[C@@H](C)N(C(=O)c1ccc(Cl)c(Cl)c1)C2 [Compound C384]
CC50 at 3 days (in vitro; [4]): > 50 µM | EC50 [1, 5]: 0.75 µM

CNC(=O)c1ccc(-n2c(NC(C)C)nc3c(c2=O)C[C@@H](C)N(C(=O)c2cc(Br)c4nccn4c2)C3)cc1 [Compound C495]
CC50 at 3 days (in vitro; [4]): > 50 µM | EC50 [1, 5]: > 25 µM

COc1ccc(CNc2nc3c(c(=O)[nH]2)CCN(C(=O)c2ccc(Br)cc2)C3)cc1 [Compound C116, 7-(4-bromobenzoyl)-2-{[(4-methoxyphenyl)methyl]amino}-5,6,7,8-tetrahydropyrido[3,4-d]pyrimidin-4(3H)-one]
CC50 at 3 days (in vitro; [2]): 27.4 µM | EC50 [1, 3]: 21.6 µM

CNC(=O)c1ccc(-n2c(NC(C)c3ccc(S(C)(=O)=O)cc3)nc3c(c2=O)C[C@@H](C)N(C(=O)c2ccc(Cl)c(Cl)c2)C3)cc1 (stereo partly drawn) [Compound C412]
CC50 at 3 days (in vitro; [4]): > 50 µM | EC50 [1, 5]: 1.6 µM
